From the CheMixHub viscosity set

Test: xn = mol fraction of the nth substance listed

CCCCCCCCCCCO + CCCCCCCCCCO
Conditions | viscosity [mPa·s]
293.15 K, 101.33 kPa, x2 = 0.1426 | 16.47
293.15 K, 101.33 kPa, x2 = 0.4429 | 15.7
293.15 K, 101.33 kPa, x2 = 0.6078 | 15.37
293.15 K, 101.33 kPa, x2 = 0.7475 | 15.08
293.15 K, 101.33 kPa, x2 = 0.889 | 14.71
298.15 K, 101 kPa, x2 = 0.6999 | 12.35
298.15 K, 101.33 kPa, x2 = 0.1426 | 13.44
298.15 K, 101.33 kPa, x2 = 0.298 | 13.14
298.15 K, 101.33 kPa, x2 = 0.7475 | 12.33
298.15 K, 101.8 kPa, x2 = 0.1083 | 13.95
298.15 K, 101.8 kPa, x2 = 0.3183 | 13.43
298.15 K, 101.8 kPa, x2 = 0.5207 | 12.98
298.15 K, 101.8 kPa, x2 = 0.7164 | 12.54
308.15 K, 101.8 kPa, x2 = 0.1083 | 9.593
308.15 K, 101.8 kPa, x2 = 0.3183 | 9.242
308.15 K, 101.8 kPa, x2 = 0.5207 | 8.963
308.15 K, 101.8 kPa, x2 = 0.7164 | 8.674
308.15 K, 101.8 kPa, x2 = 0.907 | 8.384
318.15 K, 101.8 kPa, x2 = 0.1083 | 6.748
318.15 K, 101.8 kPa, x2 = 0.3183 | 6.559
318.15 K, 101.8 kPa, x2 = 0.5207 | 6.332
318.15 K, 101.8 kPa, x2 = 0.7164 | 6.148
318.15 K, 101.8 kPa, x2 = 0.907 | 5.962

CCCCCCCCCCCO + CCCCCCCCCO
viscosity [mPa·s]
Conditions | x2 = 0.116 | x2 = 0.3375 | x2 = 0.5442 | x2 = 0.7372 | x2 = 0.7995 | x2 = 0.9152
298.15 K, 101 kPa | – | – | – | – | 10.35 | –
298.15 K, 101.8 kPa | 13.57 | 12.52 | – | – | – | 9.874
308.15 K, 101.8 kPa | 9.384 | 8.667 | 8.041 | 7.476 | – | 6.965
318.15 K, 101.8 kPa | 6.631 | 6.157 | 5.752 | 5.366 | – | 5.017

CC(C)NC(C)C + CCCCCCCCO
viscosity [mPa·s], 101 kPa
Conditions | 298.15 K | 303.15 K | 308.15 K
x1 = 0.0552 | 6.422 | 5.366 | 4.483
x1 = 0.1034 | 5.774 | 4.866 | 4.045
x1 = 0.1579 | 5.107 | 4.286 | 3.62
x1 = 0.2037 | 4.51 | 3.87 | 3.235
x1 = 0.2551 | 3.898 | 3.326 | 2.826
x1 = 0.3074 | 3.339 | 2.871 | 2.455
x1 = 0.4058 | 2.441 | 2.128 | 1.84
x1 = 0.5058 | 1.758 | 1.535 | 1.352
x1 = 0.606 | 1.265 | 1.143 | 1.046
x1 = 0.7025 | 0.916 | 0.84 | 0.76
x1 = 0.8044 | 0.664 | 0.616 | 0.58
x1 = 0.8545 | 0.571 | 0.537 | 0.502
x1 = 0.8931 | 0.509 | 0.487 | 0.452
x1 = 0.9418 | 0.442 | 0.431 | 0.401
